Assay [1] addresses T1, MCT2-embigin (Homo sapiens, UniProt O60669).
T1 construct: gene SLC16A7; fusion: embigin C-terminus joined by GGSG linker to MCT2 N-terminus, C-terminal twin-Strep tag; HEK-293F, DDM then GDN, heterodimer; in transport tests expressed as fusion in HEK-293T cells; with Embigin
T1 sequence (O60669 1-478): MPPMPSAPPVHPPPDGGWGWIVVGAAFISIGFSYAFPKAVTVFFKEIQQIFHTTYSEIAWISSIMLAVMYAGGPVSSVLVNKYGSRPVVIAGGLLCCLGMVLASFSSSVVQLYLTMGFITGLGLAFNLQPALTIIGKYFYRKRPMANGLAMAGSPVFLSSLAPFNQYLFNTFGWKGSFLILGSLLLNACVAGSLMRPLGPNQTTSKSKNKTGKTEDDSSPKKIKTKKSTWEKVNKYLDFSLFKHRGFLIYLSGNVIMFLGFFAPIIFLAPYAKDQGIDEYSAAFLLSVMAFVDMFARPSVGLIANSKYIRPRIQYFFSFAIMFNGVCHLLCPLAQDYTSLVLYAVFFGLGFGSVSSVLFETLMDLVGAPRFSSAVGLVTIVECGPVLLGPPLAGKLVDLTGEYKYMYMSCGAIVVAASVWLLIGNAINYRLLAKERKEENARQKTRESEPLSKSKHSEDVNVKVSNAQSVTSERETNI
T1 sequence (Q6PCB8 33-327 partner): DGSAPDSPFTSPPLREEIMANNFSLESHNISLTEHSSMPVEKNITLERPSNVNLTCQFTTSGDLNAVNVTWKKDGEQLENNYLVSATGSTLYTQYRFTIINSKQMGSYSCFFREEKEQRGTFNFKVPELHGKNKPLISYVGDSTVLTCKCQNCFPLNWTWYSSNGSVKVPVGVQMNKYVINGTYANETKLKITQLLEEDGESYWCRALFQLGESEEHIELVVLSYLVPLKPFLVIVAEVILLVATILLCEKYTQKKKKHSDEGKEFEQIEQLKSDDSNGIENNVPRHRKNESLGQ
In words: pyruvate uptake, pyronicSF fluorescence, transfected HEK-293T cells. It is filed as cell-based.

Assay [2] concerns the target T2, MCT2-embigin (Homo sapiens, UniProt O60669, Y34A).
T2 construct: gene SLC16A7; fusion: embigin C-terminus joined by GGSG linker to MCT2 N-terminus, C-terminal twin-Strep tag; HEK-293F, DDM then GDN, heterodimer; in transport tests expressed as fusion in HEK-293T cells; with Embigin
T2 sequence (O60669 1-478 Y34A): T1 sequence (O60669 1-478) with Y34A
T2 sequence (Q6PCB8 33-327 partner): T1 sequence (Q6PCB8 33-327 partner)
Put plainly: bio-layer interferometry, SSA biosensor, […] fit. It is filed as binding. As to conditions: pH 7.4, 25 °C. In general terms: In BLI a coated tip is dipped into the sample, and binding shifts an interference pattern.

Assay [3] concerns the target T3, MCT2-embigin (Homo sapiens, UniProt O60669, F262A).
T3 construct: gene SLC16A7; fusion: embigin C-terminus joined by GGSG linker to MCT2 N-terminus, C-terminal twin-Strep tag; HEK-293F, DDM then GDN, heterodimer; in transport tests expressed as fusion in HEK-293T cells; with Embigin
T3 sequence (O60669 1-478 F262A): T1 sequence (O60669 1-478) with F262A
T3 sequence (Q6PCB8 33-327 partner): T1 sequence (Q6PCB8 33-327 partner)
Put plainly: bio-layer interferometry, SSA biosensor, […] fit. It is filed as binding. The settings on record: pH 7.4, 25 °C.

Assay [4] addresses T1, MCT2-embigin. In words: bio-layer interferometry, SSA biosensor, […] fit. The assay is classed as binding. The settings on record: read-out: affinity (KD).
Another assay concerns T4, MCT1-Basigin-2.
T4 construct: gene SLC16A1; fusion MCT1-Basigin-2; expressed in HEK-293T cells with pyronicSF for transport; with Basigin
In words: pyruvate uptake, pyronicSF fluorescence, transfected HEK-293T cells. It is filed as cell-based, Homo sapiens. The settings on record: 5 mM pyruvate; 30 min pre-incubation.

Assay [5] deals with T2, MCT2-embigin. In words: bio-layer interferometry, SSA biosensor, […] fit. It is filed as binding.
Assay [6] has as its target T5, MCT2-embigin (Homo sapiens, UniProt O60669, F351A).
T5 construct: gene SLC16A7; fusion: embigin C-terminus joined by GGSG linker to MCT2 N-terminus, C-terminal twin-Strep tag; HEK-293F, DDM then GDN, heterodimer; in transport tests expressed as fusion in HEK-293T cells; with Embigin
T5 sequence (O60669 1-478 F351A): T1 sequence (O60669 1-478) with F351A
T5 sequence (Q6PCB8 33-327 partner): T1 sequence (Q6PCB8 33-327 partner)
In words: bio-layer interferometry, SSA biosensor, […] fit. The assay is classed as binding.

In assay [7] the target is T1, MCT2-embigin. Put plainly: bio-layer interferometry, SSA biosensor, […] fit.
The target in assay [8] is T3, MCT2-embigin. In words: bio-layer interferometry, SSA biosensor, […] fit. The assay is classed as binding.

Results on 3 compounds are retold here after paper PMC12894981, “Structure-guided screening identifies Tucatinib as dual inhibitor for MCT1/2” (EMBO Reports, 2025).

Changes are numbered by the printed parent chain. Where two headings read alike, the source gives them in different places.

With `Cc1n[nH]c(C)c1Cc1sc2c(c1C(=O)N1C[C@H](O)CO1)c(=O)n(C)c(=O)n2CC(C)C` [AR-C155858], the IC50 (as a rule, the concentration that gives 50% inhibition) on MCT2-embigin [1] was 0.981 µM. In addition, the KD entry at MCT2-embigin [2] was “The binding kinetics of AR-C155858 bound to MCT2(Y34A)-embigin (A)”; on MCT2-embigin [3], “MCT2(F262A)-embigin (B)”. In addition, at MCT2-embigin [4], the Kd (usually the equilibrium constant for the complex coming apart) stood at 0.6 µM.
As for `Cc1[nH]nc(C(F)(F)F)c1Cc1sc2c(c1C(=O)N1C[C@](C)(O)CO1)c(=O)n(C)c(=O)n2C(C)C` [AZD3965], the concentration for half-maximal inhibition (IC50) in the assay with MCT1-Basigin-2 turned out to be 1.24 µM. This lies in the single-digit micromolar range.
Regarding `Cc1cc(Nc2ncnc3ccc(NC4=NC(C)(C)CO4)cc23)ccc1Oc1ccn2ncnc2c1` [Tucatinib], the Kd at MCT2-embigin [5] was determined as 13.8 µM; on MCT2-embigin [6] it was 211 µM; at MCT2-embigin [7], 0.6 µM; on MCT2-embigin [8] it was 33.2 µM. In addition, the IC50 at MCT2-embigin [1] was determined as 2.71 µM; in the assay with MCT1-Basigin-2, 2.6 µM.
